Experimental data as given in patent US4199592A, “Antiinflammatory 4,5-diaryl-2-nitroimidazoles” (E. I. Du Pont de Nemours and Company, priority 1979, dated 1980).
Where two headings read alike, the source gives them in different places.

Legend:
[1] = test system: adjuvant-induced arthritis in rats; experiment: Established Adjuvant-Induced Arthritis in Rats (A.A.); type: in vivo, Charles River Lewis male rats; conditions: Rattus norvegicus, 24 h, read-out: A.A. ED50% (ED50% decrease from control paw volume)
[2] = test system: stretching or writhing syndrome indicative of pain induced by phenylquinone; experiment: Phenylquinone Writhing Test; type: in vivo, female white mice; conditions: Mus musculus, 0.5 h; oral, fasted mice; at 1/2 hour; read-out: ED50 (effective analgesic dose for 50% of the mice)
Protocol: Phenylquinone Writhing Test
A standard procedure for detecting and comparing the analgesic activity of compounds in this series for which there is good correlation with human efficacy is the standard phenylquinone writhing test modified from Siegmund, et al., Proc. Soc. Exp. Biol. Med. 95, 729 (1957). A test compound suspended in 1% methylcellulose was given orally to fasted (17-21 hours) female white mice, 5-20 animals per double blind test. Aqueous (0.01% phenyl-p-benzoquinone) phenylquinone was injected intraperitoneally at 24 minutes later using 0.20 ml per mouse. […] The effective analgesic dose for 50% of the mice (ED50) was calculated by the moving average method of Thompson, W. R., Bact. Rev. 11, 115-145 (1947); also time of peak action was determined for many of the compounds.

[3] = oral, rats, 7 daily doses by gavage, paw volume of uninjected left hind paw one day after last dose

Q: Which ED50 ([1]; po) does the source give for `CC(=O)Oc1ccccc1C(=O)O` [Aspirin, aspirin] here?
A: 305 mg/kg

Q: `O=[N+]([O-])c1nc(-c2ccc(F)cc2)c(-c2ccc(F)cc2)[nH]1` [Example 1, 4,5-bis(4-Fluorophenyl)-2-nitroimidazole] was tested. Which ED50 [1, 3] did it give?
A: 0.6 mg/kg

Q: What about the ED50 [2] of the same molecule?
A: 59 mg/kg

Q: For `COc1ccc(-c2nc([N+](=O)[O-])[nH]c2-c2ccc(OC)cc2)cc1` [Example 2, 4,5-bis(4-Methoxyphenyl)-2-nitroimidazole], which ED50 [1, 3] is on record?
A: 2.5 mg/kg

Q: What about the ED50 [2] of the same molecule?
A: < 130 mg/kg

Q: `CC(C)Cc1ccc(C(C)C(=O)O)cc1` (centres unmarked) [Ibuprofen, ibuprofen] was tested. Which ED50 [1, 3] did it give?
A: 100 mg/kg

Q: With `COc1ccc2c(c1)c(CC(=O)O)c(C)n2C(=O)c1ccc(Cl)cc1` [Indomethacin, indomethacin] as the molecule, how does the ED50 ([1]; po) read?
A: 0.3 mg/kg

Q: How did the ED50 [1, 3] turn out when `CCCCC1C(=O)N(c2ccccc2)N(c2ccccc2)C1=O` [Phenylbutazone, phenylbutazone] was run?
A: 10 mg/kg
